According to publication PMC6164663, “Flavonoids as Putative Epi-Modulators: Insight into Their Binding Mode with BRD4 Bromodomains Using Molecular Docking and Dynamics” (Biomolecules, 2018):

Molecular target: T1, BRD4 (Homo sapiens, UniProt O60885)
T1 construct: tandem (BD1 + BD2)
Assay: AlphaScreen binding assay with H4 peptide ([…]) K5/[…] Ac, duplicate dose-response (IC50 […])
Details: read-out: DATA 2

O=c1cc(-c2ccc(O)c(-c3c(O)cc(O)c4c(=O)cc(-c5ccc(O)cc5)oc34)c2)oc2cc(O)cc(O)c12 [amentoflavone]
IC50: 30.4 µM
